Measurements as given in publication PMC8878501 (Marine Drugs, 2022).
pIC50: −log10 of the molar value. Positions of bridges follow the written chain, without caps; N, C: chain ends. Residues, ends and D or L forms follow the SMILES beside them.

Tests used:
[1] = target: rα3β2 nAChR (Rattus norvegicus, UniProt P04757+P12390); assay: cell-based; conditions: 20–25 °C
[2] = target: rα6/α3β4 nAChR (Rattus norvegicus, UniProt P04757+P12392+P43143); assay: cell-based; conditions: 20–25 °C
[3] = target: rα3β4 nAChR (Rattus norvegicus, UniProt P04757+P12392); assay: cell-based; format: cell-based
Chain of rα3β4 nAChR (P04757 26-499 limits assumed): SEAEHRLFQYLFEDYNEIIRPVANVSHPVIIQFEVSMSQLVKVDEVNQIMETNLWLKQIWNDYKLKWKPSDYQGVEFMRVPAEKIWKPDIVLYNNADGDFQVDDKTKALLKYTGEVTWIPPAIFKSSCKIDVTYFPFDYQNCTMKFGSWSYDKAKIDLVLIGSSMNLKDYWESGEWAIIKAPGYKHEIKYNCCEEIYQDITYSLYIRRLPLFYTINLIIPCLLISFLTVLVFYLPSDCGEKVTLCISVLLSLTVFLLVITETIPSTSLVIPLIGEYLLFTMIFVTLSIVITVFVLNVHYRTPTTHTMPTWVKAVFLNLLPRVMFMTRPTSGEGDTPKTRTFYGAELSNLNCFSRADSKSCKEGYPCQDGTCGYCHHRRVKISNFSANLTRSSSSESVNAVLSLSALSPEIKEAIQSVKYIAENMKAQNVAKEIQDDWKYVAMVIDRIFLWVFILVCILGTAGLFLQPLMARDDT
Chain of rα3β4 nAChR (P12392 21-495 limits assumed): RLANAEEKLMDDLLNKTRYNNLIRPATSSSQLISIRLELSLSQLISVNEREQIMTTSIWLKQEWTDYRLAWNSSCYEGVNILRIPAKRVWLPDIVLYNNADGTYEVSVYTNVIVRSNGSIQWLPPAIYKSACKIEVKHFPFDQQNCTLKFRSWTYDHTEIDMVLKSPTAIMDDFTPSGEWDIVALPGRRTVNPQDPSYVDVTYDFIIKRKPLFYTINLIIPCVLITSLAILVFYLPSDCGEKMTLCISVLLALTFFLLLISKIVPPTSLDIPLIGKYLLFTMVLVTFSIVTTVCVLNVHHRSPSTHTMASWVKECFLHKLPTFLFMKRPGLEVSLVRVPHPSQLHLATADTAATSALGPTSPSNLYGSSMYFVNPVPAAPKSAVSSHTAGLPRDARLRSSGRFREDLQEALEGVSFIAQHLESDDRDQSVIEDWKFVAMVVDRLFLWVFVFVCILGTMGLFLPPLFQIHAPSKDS

[4] = target: rα7 nAChR (Rattus norvegicus, UniProt Q05941); format: cell-based; conditions: at 20 μM
[5] = target: rα4β2 nAChR (Rattus norvegicus, UniProt P09483+P12390); assay: cell-based; format: cell-based
Chain of rα4β2 nAChR (P09483 31-630 limits assumed): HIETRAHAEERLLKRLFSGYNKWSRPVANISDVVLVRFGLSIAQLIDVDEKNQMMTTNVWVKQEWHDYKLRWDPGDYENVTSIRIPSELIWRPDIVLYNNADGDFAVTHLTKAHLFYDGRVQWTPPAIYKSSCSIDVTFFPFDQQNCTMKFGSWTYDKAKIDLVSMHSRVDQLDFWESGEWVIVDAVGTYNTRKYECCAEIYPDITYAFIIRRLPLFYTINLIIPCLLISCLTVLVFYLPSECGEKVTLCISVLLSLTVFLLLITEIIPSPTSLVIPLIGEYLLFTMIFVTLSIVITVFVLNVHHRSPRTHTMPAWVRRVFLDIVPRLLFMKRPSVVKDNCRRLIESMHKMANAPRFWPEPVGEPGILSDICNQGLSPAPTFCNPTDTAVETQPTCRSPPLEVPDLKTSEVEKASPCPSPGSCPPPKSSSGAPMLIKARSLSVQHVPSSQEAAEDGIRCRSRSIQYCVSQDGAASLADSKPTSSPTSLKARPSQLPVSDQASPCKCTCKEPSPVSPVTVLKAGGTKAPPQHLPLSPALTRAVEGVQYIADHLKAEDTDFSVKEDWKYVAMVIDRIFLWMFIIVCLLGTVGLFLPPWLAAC
Chain of rα4β2 nAChR (P12390 25-500 limits assumed): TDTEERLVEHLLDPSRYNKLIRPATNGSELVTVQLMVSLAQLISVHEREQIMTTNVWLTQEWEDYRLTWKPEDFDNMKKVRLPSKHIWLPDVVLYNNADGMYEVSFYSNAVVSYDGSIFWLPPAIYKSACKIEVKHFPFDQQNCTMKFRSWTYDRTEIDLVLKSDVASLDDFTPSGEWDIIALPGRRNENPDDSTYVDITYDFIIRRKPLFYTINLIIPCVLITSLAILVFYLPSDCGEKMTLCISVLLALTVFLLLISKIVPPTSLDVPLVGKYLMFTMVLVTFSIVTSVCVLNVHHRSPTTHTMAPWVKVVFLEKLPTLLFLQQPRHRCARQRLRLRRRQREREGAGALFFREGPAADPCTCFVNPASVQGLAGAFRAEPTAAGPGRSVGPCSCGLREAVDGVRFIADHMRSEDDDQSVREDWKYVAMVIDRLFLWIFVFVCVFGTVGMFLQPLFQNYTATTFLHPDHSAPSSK

[6] = target: rα9α10 nAChR (Rattus norvegicus, UniProt P43144+Q9JLB5); assay: cell-based; format: cell-based
[7] = target: hα9α10 nAChR (Homo sapiens, UniProt Q9GZZ6+Q9UGM1); assay: cell-based
Chain of hα9α10 nAChR (Q9UGM1 26-479 limits assumed): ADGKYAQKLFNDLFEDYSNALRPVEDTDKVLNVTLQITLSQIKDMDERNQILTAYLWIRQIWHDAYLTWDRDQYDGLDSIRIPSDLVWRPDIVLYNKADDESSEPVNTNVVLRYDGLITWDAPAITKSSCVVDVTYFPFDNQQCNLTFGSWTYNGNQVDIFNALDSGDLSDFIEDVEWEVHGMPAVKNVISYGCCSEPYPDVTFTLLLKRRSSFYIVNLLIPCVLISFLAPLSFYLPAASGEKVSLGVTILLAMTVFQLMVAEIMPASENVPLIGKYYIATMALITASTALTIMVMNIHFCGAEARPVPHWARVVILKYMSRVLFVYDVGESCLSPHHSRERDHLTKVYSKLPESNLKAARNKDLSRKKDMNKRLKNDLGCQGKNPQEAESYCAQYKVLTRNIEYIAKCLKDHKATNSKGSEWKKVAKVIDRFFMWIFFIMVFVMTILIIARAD
Chain of hα9α10 nAChR (Q9GZZ6 25-450 limits assumed): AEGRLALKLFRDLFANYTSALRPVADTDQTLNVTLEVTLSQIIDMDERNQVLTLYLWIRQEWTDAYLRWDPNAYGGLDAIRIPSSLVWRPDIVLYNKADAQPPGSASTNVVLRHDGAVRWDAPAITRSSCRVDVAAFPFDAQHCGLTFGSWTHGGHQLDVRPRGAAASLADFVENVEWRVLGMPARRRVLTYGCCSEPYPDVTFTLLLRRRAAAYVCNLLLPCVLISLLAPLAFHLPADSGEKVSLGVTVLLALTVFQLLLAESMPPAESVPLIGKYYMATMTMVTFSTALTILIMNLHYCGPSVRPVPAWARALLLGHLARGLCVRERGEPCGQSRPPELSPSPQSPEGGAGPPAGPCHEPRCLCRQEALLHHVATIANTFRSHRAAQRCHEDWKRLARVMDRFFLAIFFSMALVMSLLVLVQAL

[8] = target: rα6/α3β2β3 nAChR (Rattus norvegicus, UniProt P04757+P12390+P12391+P43143); assay: cell-based
Chain of rα6/α3β2β3 nAChR (P04757 whole entry, looked up): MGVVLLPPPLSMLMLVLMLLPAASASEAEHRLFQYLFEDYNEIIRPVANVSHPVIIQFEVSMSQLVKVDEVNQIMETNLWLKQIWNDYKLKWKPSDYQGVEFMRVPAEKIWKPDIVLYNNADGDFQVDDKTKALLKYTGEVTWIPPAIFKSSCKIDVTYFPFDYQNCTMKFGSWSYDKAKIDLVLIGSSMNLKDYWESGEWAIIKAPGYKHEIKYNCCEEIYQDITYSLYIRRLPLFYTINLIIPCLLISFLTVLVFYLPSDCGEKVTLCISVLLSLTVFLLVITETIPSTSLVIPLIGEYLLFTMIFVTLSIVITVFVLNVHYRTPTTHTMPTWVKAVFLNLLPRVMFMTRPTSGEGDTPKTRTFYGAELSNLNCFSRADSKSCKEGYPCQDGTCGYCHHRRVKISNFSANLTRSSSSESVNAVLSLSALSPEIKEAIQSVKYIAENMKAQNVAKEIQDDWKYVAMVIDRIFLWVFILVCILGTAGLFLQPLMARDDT
Chain of rα6/α3β2β3 nAChR (P12390 whole entry, looked up): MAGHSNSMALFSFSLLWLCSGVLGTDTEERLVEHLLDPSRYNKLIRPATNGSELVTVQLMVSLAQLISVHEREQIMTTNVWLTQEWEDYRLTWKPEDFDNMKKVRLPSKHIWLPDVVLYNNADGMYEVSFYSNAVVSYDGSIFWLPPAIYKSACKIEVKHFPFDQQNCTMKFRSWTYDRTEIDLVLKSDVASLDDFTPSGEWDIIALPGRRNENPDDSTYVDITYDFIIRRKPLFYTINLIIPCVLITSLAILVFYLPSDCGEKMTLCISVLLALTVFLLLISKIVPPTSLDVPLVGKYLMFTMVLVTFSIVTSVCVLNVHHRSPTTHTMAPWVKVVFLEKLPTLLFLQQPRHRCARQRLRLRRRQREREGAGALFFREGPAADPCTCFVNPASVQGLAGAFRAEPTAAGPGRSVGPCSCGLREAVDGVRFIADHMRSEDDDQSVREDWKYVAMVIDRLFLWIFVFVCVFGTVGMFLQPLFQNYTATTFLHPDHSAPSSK
Chain of rα6/α3β2β3 nAChR (P12391 whole entry, looked up): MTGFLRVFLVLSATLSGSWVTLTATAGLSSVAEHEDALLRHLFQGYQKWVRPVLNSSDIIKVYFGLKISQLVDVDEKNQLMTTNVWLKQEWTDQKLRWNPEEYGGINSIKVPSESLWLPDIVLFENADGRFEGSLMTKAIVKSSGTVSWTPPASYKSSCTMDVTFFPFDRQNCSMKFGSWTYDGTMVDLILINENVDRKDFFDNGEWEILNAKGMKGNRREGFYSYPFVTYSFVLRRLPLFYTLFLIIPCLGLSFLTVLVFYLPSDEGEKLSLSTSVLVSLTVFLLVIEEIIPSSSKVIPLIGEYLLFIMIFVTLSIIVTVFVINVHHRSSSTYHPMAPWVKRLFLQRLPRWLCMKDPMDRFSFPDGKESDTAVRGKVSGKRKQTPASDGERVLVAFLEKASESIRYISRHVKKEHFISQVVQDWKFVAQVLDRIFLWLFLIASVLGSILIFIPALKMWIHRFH
Chain of rα6/α3β2β3 nAChR (P43143 whole entry, looked up): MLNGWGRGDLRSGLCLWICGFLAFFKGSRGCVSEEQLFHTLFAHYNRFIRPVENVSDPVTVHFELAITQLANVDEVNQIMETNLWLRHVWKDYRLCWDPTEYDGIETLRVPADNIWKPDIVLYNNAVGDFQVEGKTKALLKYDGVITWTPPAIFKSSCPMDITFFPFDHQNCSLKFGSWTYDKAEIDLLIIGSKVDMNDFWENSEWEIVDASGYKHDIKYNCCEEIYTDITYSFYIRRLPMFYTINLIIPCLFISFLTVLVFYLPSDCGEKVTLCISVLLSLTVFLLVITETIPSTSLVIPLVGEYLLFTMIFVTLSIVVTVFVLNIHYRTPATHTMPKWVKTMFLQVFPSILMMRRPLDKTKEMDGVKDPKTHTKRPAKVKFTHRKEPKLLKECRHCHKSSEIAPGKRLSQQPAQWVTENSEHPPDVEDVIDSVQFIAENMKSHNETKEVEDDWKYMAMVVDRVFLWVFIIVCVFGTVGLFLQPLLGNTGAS

Chain of rα3β2 nAChR (P04757 26-499 limits assumed): as the sequence (P04757 26-499 limits assumed) above
Chain of rα3β2 nAChR (P12390 25-500 limits assumed): as the sequence (P12390 25-500 limits assumed) above

CC[C@H](C)[C@@H]1NC(=O)[C@H](CCC(=O)O)NC(=O)[C@@H]2CCCN2C(=O)[C@H](Cc2c[nH]cn2)NC(=O)[C@H]([C@@H](C)O)NC(=O)[C@H](CCC(N)=O)NC(=O)[C@H](C)NC(=O)[C@@H]2CSSC[C@H](NC(=O)[C@H](CCC(=O)O)NC(=O)[C@@H](N)CC(=O)O)C(=O)N[C@@H](CSSC[C@@H](C(N)=O)NC1=O)C(=O)N[C@@H](CO)C(=O)N[C@@H](CC(N)=O)C(=O)N1CCC[C@H]1C(=O)N[C@@H](CO)C(=O)N2 [QuIA] (H-DECCSNPSCAQTHPEIC-NH2; disulfide 3-9, 4-17)
pIC50 [1]: 7.25
pIC50 [2]: 7.04
pIC50 [3]: < 5.00
blocking of ACh-induced current ([3]; at 10 µM): ^a Values in parentheses are a 95% confidence interval (C.I.). ^b Less than 50% blocking at 10 µM. All receptors are of rat (r) or human (h) origin, except α1β1δε, which is of mouse (m) origin. ND, not determined.
blocking of ACh-induced current [4]: less than 50%
pIC50 [5]: < 5.00
blocking of ACh-induced current ([5]; at 10 µM): ^a Values in parentheses are a 95% confidence interval (C.I.). ^b Less than 50% blocking at 10 µM. All receptors are of rat (r) or human (h) origin, except α1β1δε, which is of mouse (m) origin. ND, not determined.
pIC50 [6]: < 5.00
blocking of ACh-induced current ([6]; at 10 µM): ^a Values in parentheses are a 95% confidence interval (C.I.). ^b Less than 50% blocking at 10 µM. All receptors are of rat (r) or human (h) origin, except α1β1δε, which is of mouse (m) origin. ND, not determined.
pIC50 [7]: < 5.00
blocking of ACh-induced current ([7]; at 10 µM): ^a Values in parentheses are a 95% confidence interval (C.I.). ^b Less than 50% blocking at 10 µM. All receptors are of rat (r) or human (h) origin, except α1β1δε, which is of mouse (m) origin. ND, not determined.
pIC50 [8]: < 5.00
blocking of ACh-induced current ([8]; at 10 µM): ^a Values in parentheses are a 95% confidence interval (C.I.). ^b Less than 50% blocking at 10 µM. All receptors are of rat (r) or human (h) origin, except α1β1δε, which is of mouse (m) origin. ND, not determined.
